Data reported in the supplement of paper PMC11208160.

Assay: recombinant barcode read abundance after kanamycin selection (control-corrected) (log10(CPM+1)); higher = more efficient recombination; sequences stand for … in AGTGCAGAGAAAATCGGCCAGTTTTCTCTGCCTGCAGTCCGCATGCCGT…AGATTTATGCAGCGGACTGCCTTTCTCCCAAAGTGATAAACCGGACAGTATCATGGACCGGTTTTCCCGGTAATCCGTATTTGCAAGGTTGGTTTCACT; site = the 11-nt target
How it was run: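 IS621 bridge RNA target-binding loops were paired with targets in a pooled library tested in E. coli. After co-electroporation with a donor plasmid, cells were plated in two replicates on chloramphenicol/ampicillin LB agar (control) and on chloramphenicol/ampicillin/kanamycin carrying 0.1 mM IPTG. Barcodes at recombinant junctions were counted as counts per million, averaged and control-corrected to give recombination efficiency. Values are log10(CPM+1).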
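Further: IS621 recombinase and bridge RNA in Escherichia coli cells.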

Sequence	recombinant barcode read abundance (log10)
TGACGCTCTTGGGTTCTAACCTGTTGCCT (site TGGCGCTCTAG)	0.323
TGACGCTCTTGGGTTCTAACCTGTTGCCT (site TGTCGCTCTAG)	0.433
TGACTACCTTGGGTTCTAACCTGTTGCCT (site TCGCTACCTAG)	0.0696
TGACTACCTTGGGTTCTAACCTGTTGCCT (site TGACTACCTAG)	0.838
TGACTAGCTTGGGTTCTAACCTGTTGCCT (site TGACTAGCTAG)	0.176
TGACTAGCTTGGGTTCTAACCTGTTGCCT (site TGCCTAGCTAG)	0.03
TGACTAGCTTGGGTTCTAACCTGTTGCCT (site TGGCTAGCTAG)	0.0206
TGACTAGCTTGGGTTCTAACCTGTTGCCT (site TGTCTAGCTAG)	0.0443
TGAGAACCTTGGGTTCTAACCTGTTGCCT (site AGAGAACCTAG)	0.666
TGAGAACCTTGGGTTCTAACCTGTTGCCT (site CGAGAACCTAG)	0.486
TGAGAACCTTGGGTTCTAACCTGTTGCCT (site GGAGAACCTAG)	0.118
TGAGAACCTTGGGTTCTAACCTGTTGCCT (site TGAGAACCTAG)	2.33
TGAGAGGCTTGGGTTCTAACCTGTTGCCT (site TGAGAGGCTAG)	0.718
TGAGAGGCTTGGGTTCTAACCTGTTGCCT (site TGAGCGGCTAG)	0.173
TGAGAGGCTTGGGTTCTAACCTGTTGCCT (site TGAGGGGCTAG)	0.361
TGAGAGGCTTGGGTTCTAACCTGTTGCCT (site TGAGTGGCTAG)	0.638
TGAGTCCCTTGGGTTCTAACCTGTTGCCT (site TGAGTCCCTAG)	2.03
TGAGTCCCTTGGGTTCTAACCTGTTGCCT (site TGCGTCCCTAG)	0.201
TGAGTCCCTTGGGTTCTAACCTGTTGCCT (site TGGGTCCCTAG)	0.444
TGAGTCCCTTGGGTTCTAACCTGTTGCCT (site TGTGTCCCTAG)	0.523
TGATATGCTTGGGTTCTAACCTGTTGCCT (site TGAAATGCTAG)	0.322
TGATATGCTTGGGTTCTAACCTGTTGCCT (site TGACATGCTAG)	0.347

Sequence	recombinant barcode read abundance (log10)
TGATATGCTTGGGTTCTAACCTGTTGCCT (site TGAGATGCTAG)	0.0846
TGATATGCTTGGGTTCTAACCTGTTGCCT (site TGATATGCTAG)	0.463
TGATTGACTTGGGTTCTAACCTGTTGCTT (site GATGCACCTCC)	0.194
TGATTGACTTGGGTTCTAACCTGTTGCTT (site TGATTGACTAA)	0.0769
TGCATAGCTTGGGTTCTAACCTGTTGCCA (site CTTGCGACTAA)	0.068
TGCATAGCTTGGGTTCTAACCTGTTGCCA (site TGCATAGCTTG)	0.0795
TGCCACCCTTGGGTTCTAACCTGTTGCGT (site TACTACCCTAC)	0.0993
TGCCACCCTTGGGTTCTAACCTGTTGCGT (site TGCCACCCTAC)	2.14
TGCCCCGCTTGGGTTCTAACCTGTTGCCT (site ACTTAGTCTGA)	0.341
TGCCCCGCTTGGGTTCTAACCTGTTGCCT (site TGCCCCGCTAG)	1.11
TGCCGAACTTGGGTTCTAACCTGTTGCCT (site AGCCGAACTAG)	0.0709
TGCCGAACTTGGGTTCTAACCTGTTGCCT (site CGCCGAACTAG)	0.16
TGCCGAACTTGGGTTCTAACCTGTTGCCT (site GGCCGAACTAG)	0.0503
TGCCGAACTTGGGTTCTAACCTGTTGCCT (site TGCCGAACTAG)	0.161
TGCCGCTCTTGGGTTCTAACCTGTTGCCT (site TGACGCTCTAG)	1.35
TGCCGCTCTTGGGTTCTAACCTGTTGCCT (site TGCCGCTCTAG)	1.24
TGCCGCTCTTGGGTTCTAACCTGTTGCCT (site TGGCGCTCTAG)	0.277
TGCCGCTCTTGGGTTCTAACCTGTTGCCT (site TGTCGCTCTAG)	0.0629
TGCGACCCTTGGGTTCTAACCTGTTGCTT (site TGCGACCCTAA)	1.74
TGCGACCCTTGGGTTCTAACCTGTTGCTT (site TGGGACCCTAT)	0.312
TGCGACTCTTGGGTTCTAACCTGTTGCCT (site TGAGACTCTAG)	1.47
TGCGACTCTTGGGTTCTAACCTGTTGCCT (site TGCGACTCTAG)	1.5

Sequence	recombinant barcode read abundance (log10)
TGCGACTCTTGGGTTCTAACCTGTTGCCT (site TGGGACTCTAG)	0.0561
TGCGACTCTTGGGTTCTAACCTGTTGCCT (site TGTGACTCTAG)	0.0576
TGCGTAACTTGGGTTCTAACCTGTTGCCA (site GAACCTCCTAT)	0.0676
TGCGTAACTTGGGTTCTAACCTGTTGCCA (site TGCGTAACTTG)	0.104
TGCTCTACTTGGGTTCTAACCTGTTGCTG (site TGCTCTACTCA)	0.00915
TGCTCTACTTGGGTTCTAACCTGTTGCTG (site TGTTCTACTCG)	0.114
TGGACTTCTTGGGTTCTAACCTGTTGCTT (site TGGAATTCTAA)	0.0677
TGGACTTCTTGGGTTCTAACCTGTTGCTT (site TGGACTTCTAA)	0.0981
TGGAGCCCTTGGGTTCTAACCTGTTGCTT (site TGGAGCCCTAA)	0.463
TGGAGCCCTTGGGTTCTAACCTGTTGCTT (site TGGAGTCCTAA)	0.136
TGGAGTACTTGGGTTCTAACCTGTTGCTT (site TGGAGTACTAA)	1.02
TGGAGTACTTGGGTTCTAACCTGTTGCTT (site TGTAGTACTAG)	0.0535
TGGATTCCTTGGGTTCTAACCTGTTGCCT (site TGGATTCCTAG)	0.223
TGGATTCCTTGGGTTCTAACCTGTTGCCT (site TGGATTGCTAG)	0.392
TGGCAATCTTGGGTTCTAACCTGTTGCCT (site ACCTCGGCTCA)	0.556
TGGCAATCTTGGGTTCTAACCTGTTGCCT (site TGGCAATCTAG)	0.257
TGGCCCTCTTGGGTTCTAACCTGTTGCTA (site TGGCCCTCTAA)	1.1
TGGCCCTCTTGGGTTCTAACCTGTTGCTA (site TGGCCCTCTCA)	0.0705
TGGCCCTCTTGGGTTCTAACCTGTTGCTA (site TGGCCCTCTGA)	0.0109
TGGCCCTCTTGGGTTCTAACCTGTTGCTA (site TGGCCCTCTTA)	2.03
TGGCCCTCTTGGGTTCTAACCTGTTGCTG (site TGGCCCTCTAA)	0.784
TGGCCCTCTTGGGTTCTAACCTGTTGCTG (site TGGCCCTCTCA)	2.31
